{"source": "patent US11613522B2", "about": "“Herbicidally active 3-phenylisoxazoline-5-carboxamides of tetrahydro- and dihydrofurancarboxamides” (BAYER AKTIENGESELLSCHAFT, priority 2017, dated 2023)", "assay_type_in_all_cases": "in vivo", "key": {"Pharbitis purpurea [1]": {"test_system": "Pharbitis purpurea", "test": "Pre-emergence herbicidal activity against PHBPU", "conditions": "dosage 80 g/ha, scored visually after about 3 weeks vs untreated controls", "outline": "(§1)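 Seeds sown in pots and covered with soil; compounds formulated as WP or EC applied to the soil surface as aqueous suspension or emulsion with 0.5% additive at 600 l/ha water. Pots held in greenhouse; activity scored visually about 3 weeks later as % versus untreated controls (100% = dead).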"}, "Hordeum murinum [2]": {"test_system": "Hordeum murinum", "test": "Pre-emergence herbicidal activity against HORMU", "conditions": "Hordeum murinum, 504 h, dosage 80 g/ha", "outline": "as §1"}, "Stellaria media [3]": {"test_system": "Stellaria media", "test": "Post-emergence herbicidal activity against STEME", "conditions": "Stellaria media, 504 h, dosage 320 g/ha, rated visually after about 3 weeks", "outline": "(§2)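 Percent herbicidal activity, 0% like controls and 100% dead plants, is scored visually roughly 3 weeks after foliar treatment. Treatment follows 2–3 weeks of greenhouse growth in sandy loam, at the one-leaf stage, using WP or EC preparations in water with 0.5% additive (600 l/ha).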"}, "Abutilon theophrasti": {"test_system": "Abutilon theophrasti", "test": "Post-emergence herbicidal activity against ABUTH", "conditions": "Abutilon theophrasti, 504 h, dosage 320 g/ha, rated visually after about 3 weeks", "outline": "as §2"}, "Avena fatua": {"test_system": "Avena fatua", "test": "Pre-emergence herbicidal activity against AVEFA", "conditions": "Avena fatua, 504 h, dosage 80 g/ha, scored visually after about 3 weeks vs untreated controls, read-out: Pre-emergence herbicidal activity in % against AVEVA (AVEFA)", "outline": "as §1"}, "Lolium rigidum [4]": {"test_system": "Lolium rigidum", "test": "Pre-emergence herbicidal activity against LOLRI", "conditions": "Lolium rigidum, 504 h, dosage 80 g/ha, scored visually after about 3 weeks vs untreated controls", "outline": "as §1"}, "Alopecurus myosuroides [5]": {"test_system": "Alopecurus myosuroides", "test": "Pre-emergence herbicidal activity against ALOMY", "conditions": "Alopecurus myosuroides, 504 h, dosage 80 g/ha, scored visually after about 3 weeks vs untreated controls", "outline": "as §1"}, "Veronica persica [6]": {"test_system": "Veronica persica", "test": "Pre-emergence herbicidal activity against VERPE", "conditions": "Veronica persica, 504 h, dosage 80 g/ha", "outline": "as §1"}, "Setaria viridis [7]": {"test_system": "Setaria viridis", "test": "Post-emergence herbicidal activity against SETVI", "conditions": "Setaria viridis, 504 h, dosage 320 g/ha, rated visually after about 3 weeks", "outline": "as §2"}, "Amaranthus retroflexus [8]": {"test_system": "Amaranthus retroflexus", "test": "Post-emergence herbicidal activity against AMARE", "conditions": "Amaranthus retroflexus, 504 h, dosage 320 g/ha, rated visually after about 3 weeks", "outline": "as §2"}, "Amaranthus retroflexus [9]": {"test_system": "Amaranthus retroflexus", "test": "Pre-emergence herbicidal activity against AMARE", "conditions": "Amaranthus retroflexus, 504 h, dosage 80 g/ha, scored visually after about 3 weeks vs untreated controls", "outline": "as §1"}, "Viola tricolor [10]": {"test_system": "Viola tricolor", "test": "Pre-emergence herbicidal activity against VIOTR", "conditions": "Viola tricolor, 504 h, dosage 80 g/ha, scored visually after about 3 weeks vs untreated controls", "outline": "as §1"}, "Pharbitis purpurea [11]": {"test_system": "Pharbitis purpurea", "test": "Post-emergence herbicidal activity against PHBPU", "conditions": "Ipomoea purpurea, 504 h, dosage 320 g/ha, rated visually after about 3 weeks", "outline": "as §2"}, "[12]": {"test": "Pre-emergence herbicidal action against harmful plants (summary of the tables)", "conditions": "504 h, application rate of 0.08 kg of active substance or less per hectare, read-out: herbicidal action, pre-emergence treatment (very good activity)", "outline": "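Seeds of weeds and crops were covered with soil, then WP or EC formulations were sprayed onto the soil surface pre-emergence at 600 l/ha water with 0.5% additive. Plants were grown in a greenhouse for about 3 weeks, and damage was scored visually as a percentage versus untreated controls (100% = plants dead).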"}, "Stellaria media [13]": {"test_system": "Stellaria media", "test": "Pre-emergence herbicidal activity against STEME", "conditions": "Stellaria media, 504 h, dosage 80 g/ha, scored visually after about 3 weeks vs untreated controls", "outline": "as §1"}, "Alopecurus myosuroides [14]": {"test_system": "Alopecurus myosuroides", "test": "Post-emergence herbicidal activity against ALOMY", "conditions": "Alopecurus myosuroides, 504 h, dosage 320 g/ha, rated visually after about 3 weeks", "outline": "as §2"}, "Cyperus esculentus": {"test_system": "Cyperus esculentus", "test": "Pre-emergence herbicidal activity against CYPES", "conditions": "dosage 80 g/ha, scored visually after about 3 weeks vs untreated controls", "description": "1. Pre-emergence herbicidal action against harmful plants and crop plant compatibility Seeds of monocotyledonous and dicotyledonous weed plants and crop plants are placed in plastic or wood fiber pots and covered with soil. The compounds of the invention, formulated in the form of wettable powders (WP) or as emulsion concentrates (EC), are then applied onto the surface of the covering soil as aqueous suspension or emulsion with addition of 0.5% additive at a water application rate of 600 l/ha (converted). After the treatment, the pots are placed in a greenhouse and kept under good growth conditions for the trial plants. After about 3 weeks, the effect of the preparations is scored visually in comparison with untreated controls as percentages. For example, 100% activity=the plants have died, 0% activity=like control plants. [table]"}, "Echinochloa crus-galli [15]": {"test_system": "Echinochloa crus-galli", "test": "Post-emergence herbicidal activity against ECHCG", "conditions": "Echinochloa crus-galli, 504 h, dosage 320 g/ha, rated visually after about 3 weeks", "outline": "as §2"}, "Hordeum murinum [16]": {"test_system": "Hordeum murinum", "test": "Post-emergence herbicidal activity against HORMU", "conditions": "Hordeum murinum, 504 h, dosage 320 g/ha, rated visually after about 3 weeks", "outline": "as §2"}, "Veronica persica [17]": {"test_system": "Veronica persica", "test": "Post-emergence herbicidal activity against VERPE", "conditions": "Veronica persica, 504 h, dosage 320 g/ha, rated visually after about 3 weeks", "outline": "as §2"}, "Setaria viridis [18]": {"test_system": "Setaria viridis", "test": "Pre-emergence herbicidal activity against SETVI", "conditions": "Setaria viridis, 504 h, dosage 80 g/ha, scored visually after about 3 weeks vs untreated controls", "outline": "as §1"}, "Lolium rigidum [19]": {"test_system": "Lolium rigidum", "test": "Post-emergence herbicidal activity against LOLRI", "conditions": "Lolium rigidum, 504 h, dosage 320 g/ha, rated visually after about 3 weeks", "outline": "as §2"}, "Echinochloa crus-galli [20]": {"test_system": "Echinochloa crus-galli", "test": "Pre-emergence herbicidal activity against ECHCG", "conditions": "Echinochloa crus-galli, 504 h, dosage 80 g/ha, scored visually after about 3 weeks vs untreated controls", "outline": "as §1"}, "Viola tricolor [21]": {"test_system": "Viola tricolor", "test": "Post-emergence herbicidal activity against VIOTR", "conditions": "Viola tricolor, 504 h, dosage 320 g/ha, rated visually after about 3 weeks", "outline": "as §2"}, "Polygonum convolvulus": {"test_system": "Polygonum convolvulus", "test": "Pre-emergence herbicidal activity against POLCO", "conditions": "Fallopia convolvulus, 504 h, dosage 80 g/ha, scored visually after about 3 weeks vs untreated controls", "outline": "as §1"}}}
{"smiles": "C=C[C@]1(C(=O)N[C@@H]2CO[C@H](C(=O)NS(C)(=O)=O)C2)CC(c2cc(F)cc(F)c2)=NO1", "note": "(mixture of isomers) [Example I-16, (5S)-3-(3,5-difluorophenyl)-N-[cis-5-(methylsulfonylcarbamoyl)tetrahydrofuran-3-yl]-5-vinyl-4H-isoxazole-5-carboxamide]", "values": [{"measurement": "Pre-emergence herbicidal activity in % against PHBPU", "setting": "Pharbitis purpurea [1]", "result": 90, "unit": "%"}, {"measurement": "pest or weed control at 80 g/ha", "setting": "Hordeum murinum [2]", "result": 100, "unit": "%"}, {"measurement": "pest or weed control at 320 g/ha", "setting": "Stellaria media [3]", "result": 90, "unit": "%"}, {"measurement": "pest or weed control at 320 g/ha", "setting": "Abutilon theophrasti", "result": 80, "unit": "%"}, {"measurement": "pest or weed control at 80 g/ha", "setting": "Avena fatua", "result": 100, "unit": "%"}, {"measurement": "pest or weed control at 80 g/ha", "setting": "Lolium rigidum [4]", "result": 100, "unit": "%"}, {"measurement": "pest or weed control at 80 g/ha", "setting": "Alopecurus myosuroides [5]", "result": 100, "unit": "%"}, {"measurement": "pest or weed control at 80 g/ha", "setting": "Veronica persica [6]", "result": 90, "unit": "%"}, {"measurement": "pest or weed control at 320 g/ha", "setting": "Setaria viridis [7]", "result": 80, "unit": "%"}, {"measurement": "pest or weed control at 320 g/ha", "setting": "Amaranthus retroflexus [8]", "result": 90, "unit": "%"}, {"measurement": "pest or weed control at 80 g/ha", "setting": "Amaranthus retroflexus [9]", "result": 100, "unit": "%"}, {"measurement": "pest or weed control at 80 g/ha", "setting": "Viola tricolor [10]", "result": 100, "unit": "%"}, {"measurement": "pest or weed control at 320 g/ha", "setting": "Pharbitis purpurea [11]", "result": 80, "unit": "%"}, {"measurement": "pest or weed control at 80 g/ha", "setting": "[12]", "result": "80 to 100", "unit": "%"}, {"measurement": "pest or weed control at 80 g/ha", "setting": "Stellaria media [13]", "result": 100, "unit": "%"}, {"measurement": "pest or weed control at 320 g/ha", "setting": "Alopecurus myosuroides [14]", "result": 90, "unit": "%"}, {"measurement": "Pre-emergence herbicidal activity in % against CYPES", "setting": "Cyperus esculentus", "result": 100, "unit": "%"}, {"measurement": "pest or weed control at 320 g/ha", "setting": "Echinochloa crus-galli [15]", "result": 90, "unit": "%"}, {"measurement": "pest or weed control at 320 g/ha", "setting": "Hordeum murinum [16]", "result": 80, "unit": "%"}, {"measurement": "pest or weed control at 320 g/ha", "setting": "Veronica persica [17]", "result": 80, "unit": "%"}, {"measurement": "pest or weed control at 80 g/ha", "setting": "Setaria viridis [18]", "result": 100, "unit": "%"}, {"measurement": "pest or weed control at 320 g/ha", "setting": "Lolium rigidum [19]", "result": 90, "unit": "%"}, {"measurement": "pest or weed control at 80 g/ha", "setting": "Echinochloa crus-galli [20]", "result": 100, "unit": "%"}, {"measurement": "pest or weed control at 320 g/ha", "setting": "Viola tricolor [21]", "result": 80, "unit": "%"}, {"measurement": "pest or weed control at 80 g/ha", "setting": "Polygonum convolvulus", "result": 100, "unit": "%"}]}
